Measurements published in patent US10533010B2, “Substituted indole Mcl-1 inhibitors” (Vanderbilt University, priority 2014, dated 2020).
pKi: −log10 of the molar value. Where two headings read alike, the source gives them in different places.

Target: recombinant Mcl-1 (residues 172-327) (Homo sapiens (Human), UniProt Q07820)
Experiment: Fluorescence polarization anisotropy competition assay (FITC-Bak or FITC-Bim BH3 peptide) with Mcl-1
Assay type: binding
Settings: for Ki: Table 2, FITC-Bak or FITC-Bim peptide competition, Ki converted from IC50, read-out: Ki for Inhibition of Mcl-1

recombinant Mcl-1 (residues 172-327), sequence (Q07820 172-327): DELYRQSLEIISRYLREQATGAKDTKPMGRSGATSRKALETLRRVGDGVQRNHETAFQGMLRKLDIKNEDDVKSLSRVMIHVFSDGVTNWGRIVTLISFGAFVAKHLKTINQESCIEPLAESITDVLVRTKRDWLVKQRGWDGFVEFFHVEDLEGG

| SMILES | Ki (Ki bins given in nM) [nM] | further results |
| --- | --- | --- |
| Cc1cc(OCCCc2c3n(c4c(-c5c(C)nn(C)c5C)cc(Cl)cc24)CCCN(c2cc(C(=O)O)c4ccn(C)c4c2)C3=O)cc(C)c1Cl [I-244, 6-(9-chloro-11-(3-(4-chloro-3,5-dimethylphenoxy)propyl)-1-oxo-7-(1,3,5-trimethyl-1H-pyrazol-4-yl)-4,5-dihydro-1H-[1,4]diazepino[1,2-a]indol-2(3H)-yl)-1-methyl-1H-indole-4-carboxylic acid] |  | pKi: 6.52 to 7.00 |
| Cc1cc(OCCCc2c3n(c4c(-c5c(C)nn(C)c5C)c(Cl)ccc24)CCCN(c2cc(CN4CCN(C)CC4)cc(C(=O)O)c2)C3=O)cc(C)c1Cl [I-228, 3-(8-chloro-11-(3-(4-chloro-3,5-dimethylphenoxy)propyl)-1-oxo-7-(1,3,5-trimethyl-1H-pyrazol-4-yl)-4,5-dihydro-1H-[1,4]diazepino[1,2-a]indol-2(3H)-yl)-5-((4-methylpiperazin-1-yl)methyl)benzoic acid] | < 50 |  |
| Cc1cc(OCCCc2c3n(c4c(-c5c(C)nn(C)c5C)cccc24)CCCN(Cc2ccc(C(=O)O)cc2)C3=O)cc(C)c1Cl [I-83, 4-((11-(3-(4-chloro-3,5-dimethylphenoxy)propyl)-1-oxo-7-(1,3,5-trimethyl-1H-pyrazol-4-yl)-4,5-dihydro-1H-[1,4]diazepino[1,2-a]indol-2(3H)-yl)methyl)benzoic acid] | < 50 |  |
| Cc1cc(OCCCc2c(C(=O)Nc3cc[nH]n3)[nH]c3c(-c4c(C)nn(C)c4C)cccc23)cc(C)c1Cl [I-313, 3-(3-(4-chloro-3,5-dimethylphenoxy)propyl)-N-(1H-pyrazol-3-yl)-7-(1,3,5-trimethyl-1H-pyrazol-4-yl)-1H-indole-2-carboxamide] | 501 to 999 |  |
| Cc1cc(OCCCc2c3n(c4c(-c5c(C)nn(C)c5C)c(Cl)ccc24)C[C@@H](C)N(Cc2ccc(C(=O)O)cn2)C3=O)cc(C)c1Cl [I-122, (R)-6-((7-chloro-10-(3-(4-chloro-3,5-dimethylphenoxy)propyl)-3-methyl-1-oxo-6-(1,3,5-trimethyl-1H-pyrazol-4-yl)-3,4-dihydropyrazino[1,2-a]indol-2(1H)-yl)methyl)nicotinic acid] | < 50 |  |
| Cc1cc(OCCCc2c(C(=O)NCc3cccc(C(=O)O)c3)[nH]c3c(-c4c(CN5CCCC5)nn(C)c4C)cccc23)cc(C)c1Cl [I-34, 3-((3-(3-(4-chloro-3,5-dimethylphenoxy)propyl)-7-(1,5-dimethyl-3-(pyrrolidin-1-ylmethyl)-1H-pyrazol-4-yl)-1H-indole-2-carboxamido)methyl)benzoic acid] | < 50 |  |
| Cc1cc(OCCCc2c(C(=O)Nc3cc(C(=O)O)c4cc[nH]c4c3)[nH]c3c(-c4c(C)nn(C)c4C)c(Cl)ccc23)cc(C)c1Cl [I-238, 6-(6-chloro-3-(3-(4-chloro-3,5-dimethylphenoxy)propyl)-7-(1,3,5-trimethyl-1H-pyrazol-4-yl)-1H-indole-2-carboxamido)-1H-indole-4-carboxylic acid] | < 50 |  |
| Cc1cc(OCCCc2c(C(=O)NCCc3ccccc3)[nH]c3ccccc23)cc(C)c1Cl [I-42, 3-(3-(4-chloro-3,5-dimethylphenoxy)propyl)-N-phenethyl-1H-indole-2-carboxamide] |  | Ki (Ki bins given in μM): 10000 to 50000 nM |
| Cc1cc(OCCCc2c3n(c4c(-c5c(C)nn(C)c5C)c(Cl)ccc24)CCNC3=O)cc(C)c1Cl [I-117, 7-chloro-10-(3-(4-chloro-3,5-dimethylphenoxy)propyl)-6-(1,3,5-trimethyl-1H-pyrazol-4-yl)-3,4-dihydropyrazino[1,2-a]indol-1(2H)-one] | < 50 |  |
| Cc1cc(OCCCc2c3n(c4c(-c5c(C)nn(C)c5C)c(Cl)ccc24)CCN(c2ccc(C(=O)O)c4ncccc24)C3=O)cc(C)c1Cl [I-161, 5-(7-chloro-10-(3-(4-chloro-3,5-dimethylphenoxy)propyl)-1-oxo-6-(1,3,5-trimethyl-1H-pyrazol-4-yl)-3,4-dihydropyrazino[1,2-a]indol-2(1H)-yl)quinoline-8-carboxylic acid] | < 50 |  |
| Cc1cc(OCCCc2c(C(=O)N[C@H]3CCC[C@@H](C(=O)O)C3)[nH]c3c(-c4c(C)nn(C)c4C)c(Cl)ccc23)cc(C)c1Cl [I-331, (1R,3S)-3-(6-chloro-3-(3-(4-chloro-3,5-dimethylphenoxy)propyl)-7-(1,3,5-trimethyl-1H-pyrazol-4-yl)-1H-indole-2-carboxamido)cyclohexane-1-carboxylic acid] | < 50 |  |
| Cc1cc(OCCCc2c3n(c4c(-c5c(C)nn(C)c5C)c(Cl)ccc24)C[C@@H](C)N(Cc2ccc(C(=O)O)o2)C3=O)cc(C)c1Cl [I-123, (R)-5-((7-chloro-10-(3-(4-chloro-3,5-dimethylphenoxy)propyl)-3-methyl-1-oxo-6-(1,3,5-trimethyl-1H-pyrazol-4-yl)-3,4-dihydropyrazino[1,2-a]indol-2(1H)-yl)methyl)furan-2-carboxylic acid] | < 50 |  |
| Cc1cc(OCCCc2c(C(=O)NCc3ccc(C(=O)NS(=O)(=O)c4ccccc4)o3)[nH]c3ccccc23)cc(C)c1Cl [I-60, 3-(3-(4-chloro-3,5-dimethylphenoxy)propyl)-N-((5-((phenylsulfonyl)carbamoyl)furan-2-yl)methyl)-1H-indole-2-carboxamide] | 101 to 299 |  |
| Cc1cc(OCCCc2c3n(c4c(-c5c(C)nn(C)c5C)c(Cl)ccc24)CCCN(c2cc(C(=O)O)cc(N(C)C)c2)C3=O)cc(C)c1Cl [I-216, 3-(8-chloro-11-(3-(4-chloro-3,5-dimethylphenoxy)propyl)-1-oxo-7-(1,3,5-trimethyl-1H-pyrazol-4-yl)-4,5-dihydro-1H-[1,4]diazepino[1,2-a]indol-2(3H)-yl)-5-(dimethylamino)benzoic acid] | < 50 |  |
| Cc1cc(OCCCc2c3n(c4c(-c5c(C)nn(C)c5C)c(Cl)ccc24)CCCN(Cc2ccc(C(=O)NS(=O)(=O)c4ccc(OCc5ccccc5)cc4)cc2)C3=O)cc(C)c1Cl [I-309, N-((4-(benzyloxy)phenyl)sulfonyl)-4-((8-chloro-11-(3-(4-chloro-3,5-dimethylphenoxy)propyl)-1-oxo-7-(1,3,5-trimethyl-1H-pyrazol-4-yl)-4,5-dihydro-1H-[1,4]diazepino[1,2-a]indol-2(3H)-yl)methyl)benzamide] | < 50 |  |
| Cc1cc(OCCCc2c(C(=O)N[C@H]3CCC[C@H]3C(=O)O)[nH]c3c(-c4c(C)nn(C)c4C)c(Cl)ccc23)cc(C)c1Cl [I-334, (1R,2S)-2-(6-chloro-3-(3-(4-chloro-3,5-dimethylphenoxy)propyl)-7-(1,3,5-trimethyl-1H-pyrazol-4-yl)-1H-indole-2-carboxamido)cyclopentane-1-carboxylic acid] | < 50 |  |
| Cc1cc(OCCCc2c(C(=O)Nc3cc(C(=O)O)cc(N4CCOCC4)c3)[nH]c3c(-c4c(C)nn(C)c4C)c(Cl)ccc23)cc(C)c1Cl [I-208, 3-(6-chloro-3-(3-(4-chloro-3,5-dimethylphenoxy)propyl)-7-(1,3,5-trimethyl-1H-pyrazol-4-yl)-1H-indole-2-carboxamido)-5-morpholinobenzoic acid] | < 50 |  |
| Cc1cc(OCCCc2c3n(c4c(-c5c(C)nn(C)c5C)c(Cl)ccc24)C[C@H](C)N(Cc2ccc(C(=O)O)cn2)C3=O)cc(C)c1Cl [I-137, (S)-6-((7-chloro-10-(3-(4-chloro-3,5-dimethylphenoxy)propyl)-3-methyl-1-oxo-6-(1,3,5-trimethyl-1H-pyrazol-4-yl)-3,4-dihydropyrazino[1,2-a]indol-2(1H)-yl)methyl)nicotinic acid] | < 50 |  |
| Cc1cc(OCCCc2c3n(c4c(-c5c(C)nn(C)c5C)c(Cl)ccc24)C(C)[C@@H](C)NC3=O)cc(C)c1Cl (stereo partly drawn) [I-119, (3R)-7-chloro-10-(3-(4-chloro-3,5-dimethylphenoxy)propyl)-3,4-dimethyl-6-(1,3,5-trimethyl-1H-pyrazol-4-yl)-3,4-dihydropyrazino[1,2-a]indol-1(2H)-one] | 101 to 299 |  |
| Cc1cc(OCCCc2c3n(c4c(-c5c(C)nn(C)c5C)c(Cl)ccc24)[C@H](C)CN(c2ccc(C(=O)O)cc2)C3=O)cc(C)c1Cl [I-172, (R)-4-(7-chloro-10-(3-(4-chloro-3,5-dimethylphenoxy)propyl)-4-methyl-1-oxo-6-(1,3,5-trimethyl-1H-pyrazol-4-yl)-3,4-dihydropyrazino[1,2-a]indol-2(1H)-yl)benzoic acid] | < 50 |  |
| Cc1cc(OCCCc2c3n(c4c(-c5c(C)nn(C)c5C)cccc24)CCN(Cc2cccc(-c4nnn[nH]4)c2)C3=O)cc(C)c1Cl [I-85, 2-(3-(1H-tetrazol-5-yl)benzyl)-10-(3-(4-chloro-3,5-dimethylphenoxy)propyl)-6-(1,3,5-trimethyl-1H-pyrazol-4-yl)-3,4-dihydropyrazino[1,2-a]indol-1(2H)-one] | < 50 |  |
| Cc1cc(OCCCc2c3n(c4c(-c5c(C)nn(C)c5C)c(Cl)ccc24)CCC(C)N(Cc2ccc(C(=O)O)o2)C3=O)cc(C)c1Cl (stereo not shown) [I-126, 5-((8-chloro-1-(3-(4-chloro-3,5-dimethylphenoxy)propyl)-3-methyl-1-oxo-7-(1,3,5-trimethyl-1H-pyrazol-4-yl)-4,5-dihydro-1H-[1,4]diazepino[1,2-a]indol-2(3H)-yl)methyl)furan-2-carboxylic acid] | < 50 |  |
| Cc1cc(OCCCc2c3n(c4c(-c5c(C)nn(C)c5C)cccc24)CCCN(Cc2cc(Br)cc(C(=O)O)c2)C3=O)cc(C)c1Cl [I-296, 3-bromo-5-((11-(3-(4-chloro-3,5-dimethylphenoxy)propyl)-1-oxo-7-(1,3,5-trimethyl-1H-pyrazol-4-yl)-4,5-dihydro-1H-[1,4]diazepino[1,2-a]indol-2(3H)-yl)methyl)benzoic acid] | 51 to 100 |  |
| Cc1cc(OCCCc2c3n(c4c(-c5c(C)nn(C)c5C)c(Cl)ccc24)C[C@@H](C)N(c2ccc(C(=O)O)cc2)C3=O)cc(C)c1Cl [I-156, (R)-4-(7-chloro-10-(3-(4-chloro-3,5-dimethylphenoxy)propyl)-3-methyl-1-oxo-6-(1,3,5-trimethyl-1H-pyrazol-4-yl)-3,4-dihydropyrazino[1,2-a]indol-2(1H)-yl)benzoic acid] | < 50 |  |
| Cc1cc(OCCCc2c(C(=O)NCCC(=O)NS(=O)(=O)c3cccc([N+](=O)[O-])c3)[nH]c3ccccc23)cc(C)c1Cl [I-21, 3-(3-(4-chloro-3,5-dimethylphenoxy)propyl)-N-(3-((3-nitrophenyl)sulfonamido)-3-oxopropyl)-1H-indole-2-carboxamide] | 101 to 299 |  |
